IC50 data for one molecule are collected here from publication PMC7879681, “Baicalein inhibits heparin-induced Tau aggregation by initializing non-toxic Tau oligomer formation” (Cell Communication and Signaling : CCS, 2021).

In this assay the target is T1, full-length Tau (hTau40WT) (Homo sapiens, UniProt P10636).
T1 construct: gene MAPT; recombinant wild type human full-length Tau (hTau40WT)
The assay is described as follows: ThS fluorescence inhibition of heparin-induced aggregation of purified Tau; supported by ANS, SDS-PAGE, CD, TEM; dissolves preformed fibrils (DC50 […]). It counts as biochemical.

T1 sequence (P10636 2-441 isoform P10636-8): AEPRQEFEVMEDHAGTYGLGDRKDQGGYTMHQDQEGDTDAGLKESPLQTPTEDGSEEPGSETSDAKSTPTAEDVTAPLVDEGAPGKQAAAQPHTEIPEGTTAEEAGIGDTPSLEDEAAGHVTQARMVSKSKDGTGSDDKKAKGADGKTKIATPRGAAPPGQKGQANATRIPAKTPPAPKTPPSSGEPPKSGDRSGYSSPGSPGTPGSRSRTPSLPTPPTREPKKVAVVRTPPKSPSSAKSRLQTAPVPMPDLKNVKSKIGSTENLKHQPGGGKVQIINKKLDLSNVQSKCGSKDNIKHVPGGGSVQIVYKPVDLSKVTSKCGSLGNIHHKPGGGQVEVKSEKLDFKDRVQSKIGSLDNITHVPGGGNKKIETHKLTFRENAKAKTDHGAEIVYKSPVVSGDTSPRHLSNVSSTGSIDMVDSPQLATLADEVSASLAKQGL

One may read the IC50 as the concentration at which inhibition is half-maximal. Low values mean greater potency, high ones weaker potency. Turning to `O=c1cc(-c2ccccc2)oc2cc(O)c(O)c(O)c12` [Baicalein], half-maximal inhibition (IC50) was put at 27.7 µM.
